We go through two compounds from patent US20220211699A1 (priority 2019, published 2022).

Experiment [1] relates to patients with diabetic neuropathy. Put plainly: Clinical study, Brief Pain Inventory-Short Form (BPI-SF) pain self-assessment. It is filed as in vivo. The conditions noted are these: Group 3. The method, then: (§1) The clinical study was carried out on a population of 142 patients with diabetic neuropathy of both sexes and aged between 18 and 75 years. Patients were divided into three groups and submitted to a randomized, double blind, placebo-controlled, parallel-group clinical trial, with double-dummy modality for patients in group 2.
(§2) Group 1 was treated with 20 mg trazodone (10 drops of 6% trazodone hydrochloride solution) three times a day for 8 weeks, for a total of 60 mg a day.
(§3) Group 2 was treated with 10 mg trazodone (5 drops of 6% trazodone hydrochloride solution) three times a day for 8 weeks, for a total of 30 mg a day.
(§4) Group 3 was treated with placebo, 10 drops of an oral solution three times a day for 8 weeks.
(§5) During the ninth week, concluding the clinical trial, group 1 was treated with 10 mg trazodone three times daily for a total of 30 mg per day, while both group 2 and group 3 were treated with placebo.
The 6% trazodone hydrochloride solution contained trazodone hydrochloride (6%), macrogol (35%), propylene glycol (30%), citric acid (0.5%), sucrose (0.15%), sodium hydroxide (0.125%), propyl gallate (0.10%), disodium edetate (0.05%), and purified water as needed at 100 mL. The placebo solution is identical to trazodone solution, but without active ingredient.
Gabapentin was administered in an incremental dosage for all patients treated according to the dosage regimen shown in Table 1 below using capsules containing 100 mg, 300 mg and 400 mg of commercially available gabapentin (Neurontin®, Pfizer). The capsules contain lactose monohydrate, corn starch and talc as excipients, and E171 and […] color combinations.
At the beginning of treatment and at the end of each treatment week, the patients under treatment completed the Brief Pain Inventory-Short Form (BPI-SF), which includes a set of questions relating to pain self-assessment (Zelman D C, et al., “Validation of a modified version of the pain inventory brief for painful diabetic peripheral neuropathy”, J. Pain Symptom Manage. 2005 April; 29(4):401-10).
In particular, patients assessed the average pain intensity in the week prior to the assessment (issue 5) and at the time of the assessment (issue 6) on a scale from 0 to 10 where 0 represents “no pain” and 10 represents “more pain than you can imagine”.
At each visit the evaluations were collected and processed in order to determine the deviation from the average value obtained for each group at the beginning of the treatment. The results were collected in the following Tables 3 and 4, from which the graphs shown in FIGS. 1 and 2 were obtained, respectively.

For experiment [2] the test system is unchanged. The experiment can be described thus: Clinical study, SF-36 Mental Component Summary (MCS): positive risk of depression or anxiety. The experiment is classed as in vivo. Conditions: Group 3. As for the experimental part: as §1, §2, §3, §4, §5
Gabapentin was administered in an incremental dosage for all patients treated according to the dosage regimen shown in Table 1 below using capsules containing 100 mg, 300 mg and 400 mg of commercially available gabapentin (Neurontin®, Pfizer). […]
The results are expressed as a percentage of patients with a positive risk of depression or anxiety compared to the normal general population in which a normal value of […] is estimated.

Experiment [3] relates to diabetic patients suffering from peripheral diabetic neuropathy. The conditions noted are these: 100 mg/day in a divided dose; 6 diabetic patients; cited from earlier work.
Experiment [4] concerns adult diabetic patients with painful distal symmetrical polyneuropathy. The conditions noted are these: oral 50 or 100 mg/day; after 2 weeks of therapy; cited from earlier work.
The mark [5] stands for this setting: Visit 1, placebo drops + gabapentin 300 mg/day.
The mark [6] stands for this setting: Visit 2, placebo drops + gabapentin 600 mg/day.
The mark [7] stands for this setting: Visit 3, placebo drops + gabapentin 900 mg/day.
[8] abbreviates: Visit 4, placebo drops + gabapentin 1200 mg/day.
[9] abbreviates: Visit 5, placebo drops + gabapentin 1800 mg/day.
Setting [10] is: Visit 6, placebo drops + gabapentin 2400 mg/day.
Where [11] appears, read: Visit 7, placebo drops + gabapentin 2400 mg/day.
[12] abbreviates: Visit 8, placebo drops + gabapentin 2400 mg/day.
Where [13] appears, read: Visit 9, placebo drops + gabapentin.
The mark [14] stands for this setting: placebo drops + incremental gabapentin.

In the case of `NCC1(CC(=O)O)CCCCC1` [gabapentin, 2-[1-(aminomethyl)cyclohexyl] acetic acid], the “Average pain assessment deviation from beginning of treatment (Visit 0), Question 5” value in experiment [1] (setting [5]) is reported as −1.0; in experiment [1] (setting [6]), −1.7; in experiment [1] (setting [7]) it was −2.1; in experiment [1] (setting [8]), −1.9; in experiment [1] (setting [9]), −2.1; in experiment [1] (setting [10]), −2.4. Also, the “Average pain assessment deviation from beginning of treatment (Visit 0), Question 5” value is listed as −2.4 in experiment [1] (setting [11]), −2.5 in experiment [1] (setting [12]) and −2.5 in experiment [1] (setting [13]). The “Average pain assessment deviation from beginning of treatment (Visit 0), Question 6” value in experiment [1] (setting [5]) is −0.9; in experiment [1] (setting [6]) it was −1.4; in experiment [1] (setting [7]) it was −1.7; in experiment [1] (setting [8]) it was −1.6; in experiment [1] (setting [9]) it was −1.8; in experiment [1] (setting [10]), −2.0. Besides, the “Average pain assessment deviation from beginning of treatment (Visit 0), Question 6” value in experiment [1] (setting [11]) is on record as −1.9; in experiment [1] (setting [12]) it was −2.0; in experiment [1] (setting [13]), −2.0. Moreover, the “Patients with 50% reduction (percentage of patients with a reduction of at least 50% compared to the initial value), question 5” value in experiment [1] (setting [14]) stood at 45.8%. For the same compound, the “Sum deviations (sum of all the deviations obtained at each visit), question 5” value in experiment [1] (setting [14]) is on record as −117.6. Besides, the “percentage of patients with a positive risk of depression or anxiety” value in experiment [2] (Visit 0 (beginning of treatment, baseline)) turned out to be 38%; in experiment [2] (Visit 8 (end of treatment), placebo drops + incremental gabapentin), 29%.

In the case of `O=c1n(CCCN2CCN(c3cccc(Cl)c3)CC2)nc2ccccn12` [trazodone, 2-(3-[4-(3-chlorophenyl)piperazin-1-yl]propyl)-[1,2,4]triazole[4,3-a]pyridin-3(2H)-one], the “effect in pain relief and numbness” value in experiment [3] is “good effect”. Also, in experiment [4], the “patients with complete relief” value is given as 22.6% and the “patients with symptomatic relief” value is recorded as 61.3%.
